{
  "source": "paper PMC4979471",
  "about": "(Cell Death Discovery, 2015)",
  "assay_in_all_cases": "Kinase selectivity, P33-radiolabeled assay",
  "assay_type_in_all_cases": "biochemical",
  "key": {"[1]": {"molecular_target": "T1, PKCmu/PRKD1 (Homo sapiens, UniProt Q15139)", "T1 construct": "purchased Reaction Biology Corp", "T1 sequence (Q15139 1-912)": "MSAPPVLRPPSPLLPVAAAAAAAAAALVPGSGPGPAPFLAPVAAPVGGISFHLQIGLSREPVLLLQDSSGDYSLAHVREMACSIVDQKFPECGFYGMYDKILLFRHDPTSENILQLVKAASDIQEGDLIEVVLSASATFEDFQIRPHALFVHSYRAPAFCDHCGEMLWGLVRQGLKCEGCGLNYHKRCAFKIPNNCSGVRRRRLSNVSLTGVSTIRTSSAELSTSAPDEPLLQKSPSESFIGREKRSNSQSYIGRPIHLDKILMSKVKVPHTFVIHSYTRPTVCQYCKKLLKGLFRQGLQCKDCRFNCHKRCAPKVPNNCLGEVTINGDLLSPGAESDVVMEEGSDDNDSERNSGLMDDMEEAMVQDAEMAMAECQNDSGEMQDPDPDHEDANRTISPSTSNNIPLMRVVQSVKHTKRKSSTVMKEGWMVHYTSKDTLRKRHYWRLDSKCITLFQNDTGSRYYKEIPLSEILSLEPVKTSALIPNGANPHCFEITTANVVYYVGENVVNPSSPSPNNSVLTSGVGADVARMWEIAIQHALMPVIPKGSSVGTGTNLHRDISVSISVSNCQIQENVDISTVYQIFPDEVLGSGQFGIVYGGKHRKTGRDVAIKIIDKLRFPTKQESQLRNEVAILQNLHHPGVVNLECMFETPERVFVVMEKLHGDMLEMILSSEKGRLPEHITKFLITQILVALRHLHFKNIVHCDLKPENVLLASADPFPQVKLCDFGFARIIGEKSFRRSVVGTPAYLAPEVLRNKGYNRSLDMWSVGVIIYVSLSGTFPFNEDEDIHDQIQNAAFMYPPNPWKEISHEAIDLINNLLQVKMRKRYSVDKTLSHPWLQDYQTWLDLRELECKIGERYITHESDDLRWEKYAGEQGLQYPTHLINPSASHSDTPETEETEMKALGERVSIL", "outline": "(§1)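 Percent residual kinase activity versus DMSO is reported. Conditions: compound at 10 μM, ATP at 10 μM, n = 2.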"}, "[2]": {"molecular_target": "T2, ITK (Homo sapiens, UniProt Q08881)", "T2 construct": "purchased Reaction Biology Corp", "T2 sequence (Q08881 1-620)": "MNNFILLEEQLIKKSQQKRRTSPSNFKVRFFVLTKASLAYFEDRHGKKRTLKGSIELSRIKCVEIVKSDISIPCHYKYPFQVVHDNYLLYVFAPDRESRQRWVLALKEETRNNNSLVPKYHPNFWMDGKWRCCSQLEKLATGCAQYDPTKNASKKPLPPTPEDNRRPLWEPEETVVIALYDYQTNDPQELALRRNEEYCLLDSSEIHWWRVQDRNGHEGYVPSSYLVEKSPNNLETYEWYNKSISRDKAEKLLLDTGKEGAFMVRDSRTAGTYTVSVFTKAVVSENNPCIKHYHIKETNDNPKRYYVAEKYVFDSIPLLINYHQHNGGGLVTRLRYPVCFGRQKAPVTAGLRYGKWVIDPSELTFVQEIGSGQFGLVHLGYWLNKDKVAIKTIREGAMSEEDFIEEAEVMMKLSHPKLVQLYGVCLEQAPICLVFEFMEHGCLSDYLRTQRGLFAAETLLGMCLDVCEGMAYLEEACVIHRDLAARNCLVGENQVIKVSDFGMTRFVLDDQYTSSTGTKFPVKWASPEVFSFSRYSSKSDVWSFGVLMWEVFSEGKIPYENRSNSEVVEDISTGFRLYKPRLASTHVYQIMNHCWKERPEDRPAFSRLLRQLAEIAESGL", "details": "10 μM ATP", "outline": "as §1"}, "[3]": {"molecular_target": "T3, EPHA6 (Homo sapiens, UniProt Q9UF33)", "T3 construct": "purchased Reaction Biology Corp", "T3 sequence (Q9UF33 23-1036)": "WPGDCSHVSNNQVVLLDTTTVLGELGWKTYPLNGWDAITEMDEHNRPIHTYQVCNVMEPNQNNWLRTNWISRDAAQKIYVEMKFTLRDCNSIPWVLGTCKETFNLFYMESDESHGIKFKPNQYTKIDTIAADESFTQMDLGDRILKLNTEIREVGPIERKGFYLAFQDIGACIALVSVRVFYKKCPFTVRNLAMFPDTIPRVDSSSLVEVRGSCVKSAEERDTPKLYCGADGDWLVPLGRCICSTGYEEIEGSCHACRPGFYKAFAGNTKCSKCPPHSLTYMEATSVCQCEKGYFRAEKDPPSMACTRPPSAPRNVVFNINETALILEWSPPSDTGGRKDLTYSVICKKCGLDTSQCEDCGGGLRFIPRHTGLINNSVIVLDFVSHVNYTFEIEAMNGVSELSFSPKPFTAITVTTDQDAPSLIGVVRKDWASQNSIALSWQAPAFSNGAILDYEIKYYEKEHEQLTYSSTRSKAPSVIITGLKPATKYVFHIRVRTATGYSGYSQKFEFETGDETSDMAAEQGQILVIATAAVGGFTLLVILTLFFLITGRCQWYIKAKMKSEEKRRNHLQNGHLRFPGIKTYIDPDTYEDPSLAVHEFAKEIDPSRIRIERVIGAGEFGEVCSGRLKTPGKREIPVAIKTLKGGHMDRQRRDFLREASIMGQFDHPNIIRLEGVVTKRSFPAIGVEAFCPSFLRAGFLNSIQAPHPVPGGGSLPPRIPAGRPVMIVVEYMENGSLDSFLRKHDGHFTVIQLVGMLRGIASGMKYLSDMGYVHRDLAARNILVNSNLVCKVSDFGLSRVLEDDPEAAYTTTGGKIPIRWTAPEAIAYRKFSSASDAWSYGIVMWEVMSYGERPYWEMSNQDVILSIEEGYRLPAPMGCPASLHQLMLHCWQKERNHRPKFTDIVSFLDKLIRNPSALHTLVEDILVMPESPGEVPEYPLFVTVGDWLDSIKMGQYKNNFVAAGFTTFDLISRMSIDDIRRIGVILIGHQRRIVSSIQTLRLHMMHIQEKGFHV", "details": "10 μM ATP", "outline": "as §1"}, "[4]": {"details": "read-out: % Enzyme Activity (relative to DMSO controls) AVG"}, "[5]": {"details": "read-out: % Enzyme Activity (relative to DMSO controls) Data 1"}, "[6]": {"details": "read-out: % Enzyme Activity (relative to DMSO controls) Data 2"}},
  "note": "Read-outs that look alike come from different tables or passages of the source.",
  "data": [
    {"molecule": "CC(C)(C)C(=O)N1N=CC[C@H]1c1ccccc1", "note": "[GSK′963]", "values": [
      {"measurement": "remaining activity at 10 µM", "setting": "[1]; 10 uM, 10 μM ATP, read-out: % Enzyme Activity (relative to DMSO controls) Data 1", "value": 99.9, "unit": "%"},
      {"measurement": "remaining activity at 10 µM", "setting": "[1]; 10 uM, 10 μM ATP, read-out: % Enzyme Activity (relative to DMSO controls) Data 2", "value": 103, "unit": "%"},
      {"measurement": "remaining activity at 10 µM", "setting": "[1]; [4]", "value": 101, "unit": "%"},
      {"measurement": "remaining activity at 10 µM", "setting": "[2]; [4]", "value": 102, "unit": "%"},
      {"measurement": "remaining activity at 10 µM", "setting": "[2]; [5]", "value": 95.2, "unit": "%"},
      {"measurement": "remaining activity at 10 µM", "setting": "[2]; [6]", "value": 108, "unit": "%"},
      {"measurement": "remaining activity at 10 µM", "setting": "[3]; [4]", "value": 99.3, "unit": "%"},
      {"measurement": "remaining activity at 10 µM", "setting": "[3]; [5]", "value": 101, "unit": "%"},
      {"measurement": "remaining activity at 10 µM", "setting": "[3]; [6]", "value": 97.5, "unit": "%"}
    ]}
  ]
}
